# Experimental data from patent US12344599B2, “Prodigiosin analogs and methods of use” (Institute For Cancer Research, priority 2016, dated 2025).
# Where two headings read alike, the source gives them in different places. * marks the point of attachment. Cbz = O=C(OCc1ccccc1)*; CH2F = FC*
# What was measured:
# Assay type in all cases: cell-based, human
# [1] = tested on: γ-H2AX in HT29 and SW480 cells; test: γ-H2AX DNA damage marker, western blot and immunofluorescence staining
# Procedure: (§1) After treatment, protein lysates were collected for Western blot analysis. A total of […] of protein was used for SDS-PAGE. After primary and secondary antibody incubations, the signal was detected by a chemiluminescence detection kit, imaged by Syngene (Imgen Technologies). Antibodies for PUMA (for IHC), p53 (Santa Cruz Biotechnology), caspase 8, cleaved caspase 8, caspase 9, caspase 3, cleavage PARP, eIF2α, p-eIF2α (Ser51), CHOP, ATF4, DR5, FOXO3a, p-FOXO3a (Ser253), NF-κB p65, p-NF-κB p65 (Ser536), c-Jun, p-c-Jun (Ser63), JNK, p-JNK (Thr183/Tyr185), PUMA (for WB), c-Myc, phosphor-S62-cMyc (Cell Signaling Technology), Noxa, p21 (Calbiochem), p73 (Bethyl laboratories Inc), Ran (BD Biosciences), […] (Sigma).
# A total of 5×10^4 cells were seeded in each well of 8-well chamber slides. After treatment, cells were fixed and permeabilized by methanol:acetone (1:1) for 20 minutes at −20° C. Fixed cells were blocked by 2% BSA for 1 hour, followed by primary antibody incubation for 1 hours and Cy3-conjuated secondary antibody incubation for 1 hour at room temperature. After washing, cells were stained with DAPI for 10 minutes at room temperature. Cells were mounted, and examined by fluorescence microscopy.
# DNA damage induces the p53 pathway and leads to cell apoptosis. To study whether the p53 pathway restoration by compound PG3-Oc is due to DNA damage, the uptake and localization of PG3-Oc was investigated in cells. PG3-Oc and prodigiosin are red fluorescent compounds, and their localization in live cells can be monitored by fluorescence microscopy. PG3-Oc and prodigiosin rapidly entered cells within 2 hours of incubation and remained in the cytosol at the 8-hour time point in HT29 and SW480 cells (FIG. 46). […] Baldino, et al. reported that prodigiosin localized to the cytoplasm, but not within the nucleus, and no γ-H2AX signal was detected in A549 cancer cells (Baldino et al., Bioorg Med Chem Lett, 2006, 16, 701-704). […]
# p53-target genes = test: Western blotting of p53-target genes (Example 1)
# Procedure: After treatment, protein lysates were collected for Western blot analysis. Twenty-five micrograms of protein were used for SDS-PAGE. After primary and secondary antibody incubations, the signal was detected with a chemiluminescent detection kit, followed by autoradiography or Syngen. […] In FIG. 10, p53-null HCT116 cells were treated with P01 and P306, alone or in combination with SiCon or SiTAp73, in various concentrations for 6 hours, and tested for p73 (C.S.), p73 (Bethyl), P63-α, p53, DR5, Puma, P21, and Ran proteins.
# [2] = tested on: SW480, DLD1 and p53-null cell line HCT116; test: CellTiter-Glo luminescent cell viability assay (Example 1)
# Procedure: SW480, DLD-1, DLD1-p73KD, HCT116, and p53-null HCT116, MRC5 and Wi38 cells were seeded at 5,000 cells per well on 96-well plates. […] Then, cells were mixed with an equal volume of CellTiter-Glo® reagents (Promega), following the manufacturer's protocol, and bioluminescence imaging was measured using the IVIS imager.
# c-Myc and PUMA = test: Western blot of c-Myc, PUMA and p53 target genes; conditions: HT29 cells
# Procedure: as §1
# To test this hypothesis, two ERK1/2 inhibitors that act by different mechanisms were used. U0126 is an indirect ERK1/2 inhibitor. It inhibits MEK1 kinase and blocks the phosphorylation of ERK1/2. […] Consistent with a previous publication (Choi et al., Genes Dev, 2010, 24, 1236-1241), SCH772984 can inhibit ERK1/2 function after ERK1/2 is phosphorylated (FIG. 73), and the same is observed for PG3-Oc (FIG. 73).
# HT29 cells = test: Flow cytometry sub-G1 (PI staining) analysis; conditions: HT29, 20 μM Z-VAD-FMK co-treated with 1 μM PG3-Oc, 48 hours
# Procedure: • 1) Cell lines: HT29, SW480, DLD-1, HCT116, and p53-null HCT116 cells, H1975, MDA-MD-231, U251, FaDu, CAL-27, PANC-1, Aspc-1, and MRC5 were obtained from the ATCC and cultured as recommended. Cells were regularly authenticated by bioluminescence, growth, and morphologic observation. The cells were routinely examined for Mycoplasma and all cell lines underwent STR authentication. • 2) Western blotting: After treatment, protein lysates were collected for Western blot analysis. 15 μg of protein was used for SDS-PAGE. After primary and secondary antibody incubations, the signal was detected by chemiluminescent detection kit, imaged by Syngene (Imgen Technologies). Antibodies for Puma, FLIPL/S and p53 (Santa Cruz Biotechnology), cleaved caspase 8, caspase 9, caspase 3, cleavage PARP, eIF2α, p-eIF2α(Ser51), CHOP, ATF4, DR5, FOXO3a, p-FOXO3a(Ser253), NF-κB p65, p-NF-κB p65(Ser536), c-Jun, p-c-Jun(Ser63), JNK, p-JNK(Thr183/Tyr185) (Cell Signaling Technology), Noxa, p21 (Calbiochem), p73 (Bethyl laboratories Inc), Ran (BD Biosciences), […] (Sigma). • 3) Cell viability assay: Cells were seeded in 96-well plate (6×10^3 cells/well). Cells were treated with different concentrations of compounds or dimethyl sulfoxide (DMSO) control for 72 hours. The cell viability was assessed by CellTiterGlo bioluminescent cell proliferation assay (Promega), following the manufacturer's protocol. Bioluminescence imaging was measured using the IVIS imager. Percentage of cell viability (mean±SEM) at each dose was calculated against the respective DMSO control. The IC50 values were determined from the sigmoidal dose-response curves using GraphPad Prims4. • 4) Caspase activity assay: Cells were seeded in 96-well plate (1×10^4 cells/well). Cells were treated with different concentrations of compounds or DMSO control for 24 hours. The caspase 3/7 activity was assessed by Caspase-Glo® 3/7 Assay kit (Promega), following the manufacturer's protocol. Bioluminescence imaging was measured using the IVIS imager. Caspase activity was normalized to cell numbers and compared to those of DMSO treatment as control in each cell line. Data is reported as mean RLU+SEM (n=3). • 5) Colony formation assays: Five hundred cells were seeded per well on 6-well plates and treated with different concentrations of compounds for 24 hours, then, cells were cultured with drug-free complete medium for 2 weeks with fresh medium changed every 7 days. Cells were fixed with 10% formalin and stained with 0.05% crystal violet at the end of 2 weeks period of cell culture. • 6) Flow cytometry assay: • a) Cell Cycle Analysis: Propidium iodide (PI) staining and flow cytometry were used to determine the degree of cellular apoptosis. Cells were seeded at 3×10^5 cells/well in six-well plates. Cells were treated with PG3-Oc for 48 hours. Cells were harvested, fixed by 70% ethanol, and stained by propidium iodide, then flow cytometry was performed as previously described (Smithen et al., Org. Biomol. Chem., 2013, 11, 62-68). The percentage of hypodiploid cells (sub-G1) was used to quantify dead cells in apoptosis assays. • b) Early apoptosis detection: Cells were seeded at 3×10^5 cells/well in six-well plates. Cells were treated with PG3-Oc for 48 hours. […]
compound,measurement,setting,value
"CCc1c2c(nc3ccc(OC(=O)N4CCC(N5CCCCC5)CC4)cc13)-c1cc3c(c(=O)n1C2)COC(=O)[C@]3(O)CC [CPT-11, Irinotecan]",induction of 65-H2AX (DNA damage marker) / foci formation,[1],significantly induced
CCc1c(C)[nH]c(/C=C2\N=C(c3ccc[nH]3)C=C2OC)c1C [P301],expression of p53-target genes,p53-target genes,induced the expression of p53-target genes via p73
same,induction of cell death,"[2]; SW480, DLD1, p53-null HCT116",potently induced cell death
same,IC50 values,"[2]; SW480, DLD1, p53-null HCT116, 72 hours",within nanomolar range
O=C(Nc1ccc2[nH]nc(-c3ccncc3)c2c1)[C@@H]1CCN(CC(=O)N2CCN(c3ccc(-c4ncccn4)cc3)CC2)C1 [SCH772984],effect on c-Myc and PUMA,c-Myc and PUMA,potently induced the downregulation of c-Myc and the upregulation of PUMA
same,"effect on p53 target genes DR5, p21 and Noxa",c-Myc and PUMA,"did not induce DR5, shown mild upregulation of p21 and suppressed Noxa expression"
N#CC(=C(/N)Sc1ccccc1N)/C(C#N)=C(\N)Sc1ccccc1N [U0126],effect on c-Myc and PUMA,c-Myc and PUMA,potently induced the downregulation of c-Myc and the upregulation of PUMA
"CCCCCc1cc(/C=C2\N=C(c3ccc[nH]3)C=C2OC)[nH]c1C [prodigiosin, Prodigiosin]",induction of 65-H2AX (DNA damage marker) / foci formation,"[1]; HT29 and SW480, 8-hour treatment",did not induce
Cbz-Val-Ala-Asp-CH2F [reference compound],formation of a sub-G1 population induced by PG3-Oc,HT29 cells,completely blocked
